Experiments:
Format in all cases: cell-based, human
TBP = experiment: DNA microarray, TBP reference gene expression in fibroblasts exposed to genistein
Protocol: (§1) The experiments were conducted to characterise the transcriptomic profile of human fibroblast cells exposed to genistein, and in particular to determine the expression of genes encoding lysosomal enzymes involved in metabolism (i.e. synthesis and degradation) of organic substances. The absence or deficiency of these enzymes' activity is responsible for occurrence of various lysosomal storage diseases (LSD) (including MPS). The tested hypothesis assumed that genistein influences the expression of many genes, among which there are genes coding for enzymes required in metabolism of compounds, which are pathologically stored in LSD. The results provide important information regarding genistein action on the molecular level within the range of gene expression modulation by this substance. The experiment was conducted in biological quintuplicates. Human dermal fibroblasts (HDFa) were exposed in vitro for 1, 24 or 48 hours to: 30, 60 or 100 μM of genistein; 0.05% DMSO (K1); or were untreated (control cells) (K2), and total RNA was isolated and analysed.
(§2) Fibroblast cells were grown in Dulbecco (DMEM) medium supplemented with 10% fetal bovine serum (FBS) with the addition of 1% antibiotics and anti-fungal agents at 37° C. in humidified atmosphere of 5% CO2, until the required confluency was obtained.
(§3) To determine the effect of tested compound on the transcriptom of the fibroblast cells, the growth medium was replaced with fresh medium, either non-supplemented (0.05% DMSO), or containing genistein (30, 60 or 100 μM, in 0.05% DMSO). The exposure was done for 1, 24 or 48 hours.
(§4) Total RNA was isolated from fibroblasts using High Pure RNA Isolation Kit according to the protocol and then it was quantitatively evaluated using Quant-It™ RiboGreen® Assay Kit.
(§5) Biotinylated cRNA was prepared using Ambion Total PrepAmp Kit for Illumina arrays.
(§6) Standard hybridization and quantitative image analysis procedures—Illumina hybridization protocol and Illumina scanning protocol, were used.
(§7) Processing of the results was done during data definition, including: background correction (using background subtraction method), normalization (using quantile normalization algorithm with Illumina GenomeStudio software package: gene expression module version 1.9.0) and summarization (using method, which sums the values of signal intensities from a set of probes).

ST3GAL4 = experiment: DNA microarray, ST3GAL4 expression in fibroblasts exposed to genistein
Protocol: as §1, §2, §3, §4, §5, §6, §7

SGSH = experiment: DNA microarray, SGSH expression in fibroblasts exposed to genistein; conditions: for SGSH fold change Average: 48 h vs DMSO
Protocol: as §1, §2, §3, §4, §5, §6, §7

FUCA1 = experiment: DNA microarray, FUCA1 expression in fibroblasts exposed to genistein; conditions: for FUCA1 fold change Average: 48 h vs DMSO
Protocol: as §1, §2, §3, §4, §5, §6, §7

ASAH1 = experiment: DNA microarray, ASAH1 expression in fibroblasts exposed to genistein; conditions: for ASAH1 fold change Average: 48 h vs DMSO
Protocol: as §1, §2, §3, §4, §5, §6, §7

GNPTAB = experiment: DNA microarray, GNPTAB expression in fibroblasts exposed to genistein; conditions: for GNPTAB fold change Average: 48 h vs DMSO
Protocol: as §1, §2, §3, §4, §5, §6, §7

ARSA = experiment: DNA microarray, ARSA expression in fibroblasts exposed to genistein; conditions: for ARSA fold change Average: 48 h vs DMSO
Protocol: as §1, §2, §3, §4, §5, §6, §7

CTSA = experiment: DNA microarray, CTSA expression in fibroblasts exposed to genistein; conditions: 30 μM, 1 h vs 0.05% DMSO
Protocol: as §1, §2, §3, §4, §5, §6, §7

O=c1c(-c2ccc(O)cc2)coc2cc(O)cc(O)c12 [genistein, 4′,5,7-trihydroxy-3-phenylchromen-4-one] was tested, and the “TBP fold change Average 1h30/1hK1” value (TBP; 30 μM, 1 h vs 0.05% DMSO) was 0.974 fold change, the “TBP fold change Average 24h30/24hK1” value (TBP; 30 μM, 24 h vs 0.05% DMSO) was 0.8816 fold change and the “TBP fold change Average 48h30/48hK1” value (TBP; 30 μM, 48 h vs 0.05% DMSO) was 0.9265 fold change. The “TBP fold change Average 1h60/1hK1” value (TBP; 60 μM, 1 h vs 0.05% DMSO) was 0.9183 fold change, the “TBP fold change Average 24h60/24hK1” value (TBP; 60 μM, 24 h vs 0.05% DMSO) was 0.7892 fold change and the “TBP fold change Average 48h60/48hK1” value (TBP; 60 μM, 48 h vs 0.05% DMSO) was 0.9926 fold change. For the same compound, the “TBP fold change Average 1h100/1hK1” value (TBP; 100 μM, 1 h vs 0.05% DMSO) was 0.9531 fold change, the “TBP fold change Average 24h100/24hK1” value (TBP; 100 μM, 24 h vs 0.05% DMSO) was 0.8303 fold change and the “TBP fold change Average 48h100/48hK1” value (TBP; 100 μM, 48 h vs 0.05% DMSO) was 0.8862 fold change. For the same compound, the “ST3GAL4 fold change Average 1h30/1hK1” value (ST3GAL4; 30 μM, 1 h vs 0.05% DMSO) was 0.9885 fold change, the “ST3GAL4 fold change Average 24h30/24hK1” value (ST3GAL4; 30 μM, 24 h vs 0.05% DMSO) was 0.782 fold change and the “ST3GAL4 fold change Average 48h30/48hK1” value (ST3GAL4; 30 μM, 48 h vs 0.05% DMSO) was 1.065 fold change. For the same compound, the “ST3GAL4 fold change Average 1h60/1hK1” value (ST3GAL4; 60 μM, 1 h vs 0.05% DMSO) was 0.9205 fold change, the “ST3GAL4 fold change Average 24h60/24hK1” value (ST3GAL4; 60 μM, 24 h vs 0.05% DMSO) was 0.9205 fold change and the “ST3GAL4 fold change Average 48h61/48hK1” value (ST3GAL4; 60 μM, 48 h vs 0.05% DMSO) was 0.9931 fold change. The “ST3GAL4 fold change Average 1h100/1hK1” value (ST3GAL4; 100 μM, 1 h vs 0.05% DMSO) was 0.8637 fold change, the “ST3GAL4 fold change Average 24h100/24hK1” value (ST3GAL4; 100 μM, 24 h vs 0.05% DMSO) was 0.6646 fold change and the “ST3GAL4 fold change Average 48h100/48hK1” value (ST3GAL4; 100 μM, 48 h vs 0.05% DMSO) was 0.8911 fold change. The “SGSH fold change Average 1h30/1hK1” value (SGSH; 30 μM, 1 h vs 0.05% DMSO) was 1.0703 fold change, the “SGSH fold change Average 1h60/1hK1” value (SGSH; 60 μM, 1 h vs 0.05% DMSO) was 1.065 fold change and the “SGSH fold change Average” value (SGSH; 60 μM) was 1.122 fold change. The “SGSH fold change Average 1h100/1hK1” value (SGSH; 100 μM, 1 h vs 0.05% DMSO) was 1.07 fold change, the “SGSH fold change Average” value (SGSH; 100 μM) was 0.9299 fold change and the “FUCA1 fold change Average 1h30/1hK1” value (FUCA1; 30 μM, 1 h vs 0.05% DMSO) was 0.9984 fold change. For the same compound, the “FUCA1 fold change Average” value (FUCA1; 30 μM) was 1.3114 fold change, the “FUCA1 fold change Average 1h60/1hK1” value (FUCA1; 60 μM, 1 h vs 0.05% DMSO) was 1.022 fold change and the “FUCA1 fold change Average” value (FUCA1; 60 μM) was 1.558 fold change. The “FUCA1 fold change Average 1h100/1hK1” value (FUCA1; 100 μM, 1 h vs 0.05% DMSO) was 0.9945 fold change, the “FUCA1 fold change Average” value (FUCA1; 100 μM) was 1.634 fold change and the “ASAH1 fold change Average 1h30/1hK1” value (ASAH1; 30 μM, 1 h vs 0.05% DMSO) was 1.1419 fold change. The “ASAH1 fold change Average” value (ASAH1; 30 μM) was 1.0802 fold change, the “ASAH1 fold change Average 1h60/1hK1” value (ASAH1; 60 μM, 1 h vs 0.05% DMSO) was 1.029 fold change and the “ASAH1 fold change Average” value (ASAH1; 60 μM) was 1.412 fold change. The “ASAH1 fold change Average 1h100/1hK1” value (ASAH1; 100 μM, 1 h vs 0.05% DMSO) was 1.252 fold change, the “ASAH1 fold change Average” value (ASAH1; 100 μM) was 1.52 fold change and the “GNPTAB fold change Average 1h30/1hK1” value (GNPTAB; 30 μM, 1 h vs 0.05% DMSO) was 0.7878 fold change. For the same compound, the “GNPTAB fold change Average” value (GNPTAB; 30 μM) was 1.6393 fold change, the “GNPTAB fold change Average 1h60/1hK1” value (GNPTAB; 60 μM, 1 h vs 0.05% DMSO) was 1.235 fold change and the “GNPTAB fold change Average 1h100/1hK1” value (GNPTAB; 100 μM, 1 h vs 0.05% DMSO) was 0.8628 fold change. The “GNPTAB fold change Average” value (GNPTAB; 100 μM) was 1.872 fold change, the “ARSA fold change Average 1h30/1hK1” value (ARSA; 30 μM, 1 h vs 0.05% DMSO) was 0.9099 fold change and the “ARSA fold change Average 1h60/1hK1” value (ARSA; 60 μM, 1 h vs 0.05% DMSO) was 0.9092 fold change. The “ARSA fold change Average” value (ARSA; 60 μM) was 1.218 fold change, the “ARSA fold change Average 1h100/1hK1” value (ARSA; 100 μM, 1 h vs 0.05% DMSO) was 0.963 fold change and the “ARSA fold change Average” value (ARSA; 100 μM) was 1.526 fold change. For the same compound, the “CTSA fold change Average 1h30/1hK1” value (CTSA) was 1.0199 fold change.

— patent publication US20150148551A1, “GENISTEIN FOR REDUCING LEVELS OF STORAGE COMPOUNDS IN THE TREATMENT AND/OR PREVENTION OF LYSOSOMAL STORAGE DISEASES (LSDS)” (3G THERAPEUTICS, INC., priority 2012, published 2015)
